Data: US20150056269A1, “LIPOSOME COMPRISING AT LEAST ONE CHOLESTEROL DERIVATIVE” (TROPHOS, priority 2011, published 2015)
≈ marks a conversion by molar mass, not a printed value. Where two headings read alike, the source gives them in different places.

How the values were obtained:
[1] = Suspensions of EPC liposomes containing the derivatives of formula (I): concentration in liposomes and particle size; type: physicochemical; details: for Particle size (nm): EPC liposomes containing the compound; for Concentration of compound in mg/mL in the liposomes: EPC liposomes, after extrusion and solvent removal
Procedure: A solution of lipids at 250 mg/mL is prepared by dissolving defined quantities of EPC and the compound of formula (I) in tert-butanol or a mixture of tert-butanol and absolute ethanol (v/v). This lipid solution is mixed at a certain temperature with aqueous buffer in order to obtain a final concentration of solvent of 15 to 17% and of product of formula (I) of […].
The large multilamellar vesicles are then extruded at a fixed temperature through 3 polycarbonate filters by 10 consecutive passes. The non encapsulated compound of formula (I) is removed on the filters.
The solvent is eliminated by filtration on membrane by washing with buffer in order to achieve a percentage of final solvent of the order of 0.4%.

[2] = Maximum solubility of the compounds of formula (I) in water and different solvents; type: physicochemical; details: for solubility: read-out: Maximum solubility (concentration)
Procedure: The maximum solubility of the compounds of formula (I) was tested in water and different solvents: […]

[3] = Liposome based on egg phospholipids
[4] = liposome based on egg phospholipids, oil or lipid

SMILES	Particle size (nm) [1] [nm]	Concentration of compound in mg/mL in the liposomes [1] [mg/mL]	further results
CC(C)CCCC(C)C1CCC2C3CCC(=NO)C(C)(CCCO)C3CCC12C (centres unmarked) [Compound 1, 3-hydroxy-3,5-seco-4-norcholestan-5-one oxime]	81.4	8.1	Maximum solubility (concentration) ([2]; (2-hydroxypropyl)-beta-cyclodextrin, 30% PBS buffer): 700 µg/mL; Maximum solubility (concentration) ([2]; Intralipid 10): 1000 µg/mL; Maximum solubility (concentration) ([2]; Intralipid 10/Solutol HS15/ethanol 92/3/5): 5000 µg/mL; Maximum solubility (concentration) [2, 3]: 30000 µg/mL; Maximum solubility (concentration) ([2]; Soya oil): 6000 µg/mL; Maximum solubility (concentration) ([2]; Water): 1 µg/mL
CC(C)CCCC(C)C1CCC2C3CCC(=NO)C(C)(CCC(C)(C)O)C3CCC12C (centres unmarked) [Compound 2, 3,3-dimethyl-3-hydroxy-3,5-seco-4-norcholestan-5-one oxime]	79.5	9.2	
CC(C)CCC[C@@H](C)[C@H]1CC[C@H]2[C@@H]3CCC4=CC(=NO)CC[C@]4(C)[C@H]3CC[C@]12C [Compound 3, cholest-4-en-3-one oxime]	88.9	12.4	solubility [2, 4]: 12400 µg/mL (≈ 31000 µM); solubility ([2]; water): 0.1 µg/mL (≈ 0.25 µM)
CC(C)=CCC[C@@H](C)[C@H]1CC[C@H]2[C@@H]3CCC4=CC(=NO)CC[C@]4(C)[C@H]3CC[C@]12C [Compound 4, cholest-4,24-dien-3-one oxime]	80.7	14.5	solubility ([2]; Intralipid 10, oil or lipid): 340 µg/mL (≈ 855 µM); solubility [2, 4]: 14500 µg/mL (≈ 36500 µM); solubility ([2]; water): 0.1 µg/mL (≈ 0.251 µM)
CC(C)CCC[C@@H](C)[C@H]1CC[C@H]2[C@@H]3CCC4=C(F)C(=NO)CC[C@]4(C)[C@H]3CC[C@]12C [Compound 5, 4-fluoro-cholest-4-en-3-one oxime]	79.1	3.6	
CCC[C@@]1(C)C(=NO)CC[C@H]2[C@@H]3CC[C@H]([C@H](C)CCCC(C)C)[C@@]3(C)CC[C@@H]21 [Compound 6, 3,5-seco-4-norcholestan-5-one oxime]	84.7	8.2	Maximum solubility (concentration) ([2]; Intralipid 10): 400 µg/mL; Maximum solubility (concentration) [2, 3]: 8200 µg/mL; Maximum solubility (concentration) ([2]; Water): 0.1 µg/mL
CC(C)CCC[C@@H](C)[C@H]1CC[C@H]2[C@@H]3CCC4=CC(=O)CC[C@]4(C)[C@H]3CC[C@]12C [Compound 7, cholest-4-en-3-one]		12.1	
CC(C)CCCC(C)C1CCC2C3CCC(=O)C(C)(CCCO)C3CCC12C (centres unmarked) [Compound 8, 3-hydroxy-3,5-seco-4-norcholestan-5-one]		11.4	
CC(C)=CCC[C@@H](C)[C@H]1CC[C@H]2[C@@H]3CCC4=CC(=O)CC[C@]4(C)[C@H]3CC[C@]12C [Compound 9, cholest-4,24-dien-3-one]		10.1	
